From ChEMBL document CHEMBL1201862, “PubChem BioAssay data set” (2004)
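Assay format: 96-well plates, 48-hour exposure. GI50 marks 50% less growth.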 Calls of active or inactive are those of the source. Rule as the data show it: active = GI50 up to about 1.1 µM and inactive = higher.

Legend:
Assay in all cases: DTP human tumour cell line panel, 48 h
A549 = test system: A549
NCI-H226 = test system: NCI-H226
SK-MEL-5 = test system: SK-MEL-5
NCI-H23 = test system: NCI-H23
COLO 205 = test system: COLO 205
CCRF-CEM = test system: CCRF-CEM
T47D = test system: T47D
ACHN = test system: ACHN
M14 = test system: M14
BT-549 = test system: BT-549
OVCAR-8 = test system: OVCAR-8
MDA-N = test system: MDA-N
U-251 = test system: U-251
786-0 = test system: 786-0
HCT-15 = test system: HCT-15
IGROV-1 = test system: IGROV-1
MOLT-4 = test system: MOLT-4
A498 = test system: A498
SF-268 = test system: SF-268
HOP-92 = test system: HOP-92
EKVX = test system: EKVX
K562 = test system: K562
OVCAR-3 = test system: OVCAR-3
MDA-MB-435 = test system: MDA-MB-435
HCT-116 = test system: HCT-116
NCI/ADR-RES = test system: NCI/ADR-RES
HOP-62 = test system: HOP-62
NCI-H522 = test system: NCI-H522
UACC-257 = test system: UACC-257
SK-MEL-28 = test system: SK-MEL-28
SK-OV-3 = test system: SK-OV-3
SNB-19 = test system: SNB-19
Hs-578T = test system: Hs-578T
Malme-3M = test system: Malme-3M
MCF7 = test system: MCF7
OVCAR-5 = test system: OVCAR-5
MDA-MB-231 = test system: MDA-MB-231
SF-539 = test system: SF-539
RPMI-8226 = test system: RPMI-8226
KM12 = test system: KM12
SN12C = test system: SN12C
SK-MEL-2 = test system: SK-MEL-2
UACC-62 = test system: UACC-62
NCI-H460 = test system: NCI-H460
CAKI-1 = test system: CAKI-1
DU-145 = test system: DU-145
PC-3 = test system: PC-3
SR = test system: SR
SF-295 = test system: SF-295
HT-29 = test system: HT-29
OVCAR-4 = test system: OVCAR-4
TK-10 = test system: TK-10
HCC 2998 = test system: HCC 2998
HL-60 = test system: HL-60
RXF 393 = test system: RXF 393
UO-31 = test system: UO-31
LOX IMVI = test system: LOX IMVI
SW-620 = test system: SW-620

SMILES: CCn1c2ccc(O)c(C(=O)OC)c2c2cc3ccccc3c(O)c21
- GI50 (A549): 16.3 µM (inactive)
- GI50 (NCI-H226): 26.2 µM (inactive)
- GI50 (SK-MEL-5): 14.2 µM (inactive)
- GI50 (NCI-H23): 16.9 µM (inactive)
- GI50 (COLO 205): 15.3 µM (inactive)
- GI50 (CCRF-CEM): 19 µM (inactive)
- GI50 (T47D): 11.5 µM (inactive)
- GI50 (ACHN): 12.6 µM (inactive)
- GI50 (M14): 20.7 µM (inactive)
- GI50 (BT-549): 15.2 µM (inactive)
- GI50 (OVCAR-8): 17.4 µM (inactive)
- GI50 (MDA-N): 20.5 µM (inactive)
- GI50 (U-251): 18 µM (inactive)
- GI50 (786-0): 12.3 µM (inactive)
- GI50 (HCT-15): 15.3 µM
- GI50 (IGROV-1): 8 µM (inactive)
- GI50 (MOLT-4): 7.87 µM (inactive)
- GI50 (A498): 13.1 µM (inactive)
- GI50 (SF-268): 16.3 µM (inactive)
- GI50 (HOP-92): 1.95 µM (inactive)
- GI50 (EKVX): 35 µM (inactive)
- GI50 (K562): 27.9 µM (inactive)
- GI50 (OVCAR-3): 14.5 µM (inactive)
- GI50 (MDA-MB-435): 17 µM (inactive)
- GI50 (HCT-116): 12.6 µM (inactive)
- GI50 (NCI/ADR-RES): 19.8 µM (inactive)
- GI50 (HOP-62): 20.2 µM (inactive)
- GI50 (NCI-H522): 18.3 µM (inactive)
- GI50 (UACC-257): 31.6 µM (inactive)
- GI50 (SK-MEL-28): 26.2 µM (inactive)
- GI50 (SK-OV-3): 10.5 µM (inactive)
- GI50 (SNB-19): 33 µM (inactive)
- GI50 (Hs-578T): 7.89 µM (inactive)
- GI50 (Malme-3M): 2.72 µM (inactive)
- GI50 (MCF7): 22.5 µM (inactive)
- GI50 (OVCAR-5): 32.3 µM (inactive)
- GI50 (MDA-MB-231): 23.2 µM (inactive)
- GI50 (SF-539): 18.7 µM (inactive)
- GI50 (RPMI-8226): 10.2 µM (inactive)
- GI50 (KM12): 15.3 µM (inactive)
- GI50 (SN12C): 18.5 µM (inactive)
- GI50 (SK-MEL-2): 13.7 µM (inactive)
- GI50 (UACC-62): 23.2 µM (inactive)
- GI50 (NCI-H460): 14.2 µM (inactive)
- GI50 (CAKI-1): 13.4 µM (inactive)
- GI50 (DU-145): 14.5 µM (inactive)
- GI50 (PC-3): 20.8 µM (inactive)
- GI50 (SR): 17.4 µM (inactive)
- GI50 (SF-295): 27.5 µM (inactive)
- GI50 (HT-29): 18.5 µM (inactive)
- GI50 (OVCAR-4): 18.1 µM (inactive)
- GI50 (TK-10): 15.9 µM (inactive)
- GI50 (HCC 2998): 22.2 µM (inactive)
- GI50 (HL-60): 20.1 µM (inactive)
- GI50 (RXF 393): 31.2 µM (inactive)
- GI50 (UO-31): 22.5 µM (inactive)

SMILES: Nc1ccc(Oc2ccc(C34CC5CC6C3CC3CC4C(C5)C6(c4ccc(Oc5ccc(N)c(O)c5)cc4)C3)cc2)cc1O
- GI50 (A549): 1.9 µM (inactive)
- GI50 (NCI-H226): 3.52 µM (inactive)
- GI50 (SK-MEL-5): 2.96 µM (inactive)
- GI50 (NCI-H23): 3.55 µM (inactive)
- GI50 (COLO 205): 1.31 µM (inactive)
- GI50 (CCRF-CEM): 3.33 µM (inactive)
- GI50 (T47D): 0.652 µM (active)
- GI50 (ACHN): 2.44 µM (inactive)
- GI50 (M14): 2.27 µM (inactive)
- GI50 (BT-549): 1.15 µM (inactive)
- GI50 (OVCAR-8): 0.67 µM (active)
- GI50 (MDA-N): 3.22 µM (inactive)
- GI50 (U-251): 2.58 µM (inactive)
- GI50 (786-0): 3.15 µM (inactive)
- GI50 (HCT-15): 3.44 µM
- GI50 (IGROV-1): 5.14 µM (inactive)
- GI50 (MOLT-4): 2.29 µM (inactive)
- GI50 (A498): 7.36 µM (inactive)
- GI50 (SF-268): 3.33 µM (inactive)
- GI50 (HOP-92): 1.35 µM (inactive)
- GI50 (EKVX): 1.79 µM (inactive)
- GI50 (K562): 2.79 µM (inactive)
- GI50 (OVCAR-3): 1.47 µM (inactive)
- GI50 (LOX IMVI): 2.87 µM (inactive)
- GI50 (MDA-MB-435): 3.83 µM (inactive)
- GI50 (HCT-116): 1.31 µM (inactive)
- GI50 (NCI/ADR-RES): 3.1 µM (inactive)
- GI50 (HOP-62): 4.78 µM (inactive)
- GI50 (NCI-H522): 1.61 µM (inactive)
- GI50 (UACC-257): 3.64 µM (inactive)
- GI50 (SK-MEL-28): 7.06 µM (inactive)
- GI50 (SK-OV-3): 10.1 µM (inactive)
- GI50 (SW-620): 4.25 µM (inactive)
- GI50 (SNB-19): 3.57 µM (inactive)
- GI50 (Hs-578T): 17.2 µM (inactive)
- GI50 (Malme-3M): 13.8 µM (inactive)
- GI50 (MCF7): 4.55 µM (inactive)
- GI50 (OVCAR-5): 2 µM (inactive)
- GI50 (MDA-MB-231): 3.75 µM (inactive)
- GI50 (SF-539): 0.0255 µM (active)
- GI50 (RPMI-8226): 1.93 µM (inactive)
- GI50 (KM12): 3.69 µM (inactive)
- GI50 (SN12C): 1.72 µM (inactive)
- GI50 (SK-MEL-2): 19.5 µM (inactive)
- GI50 (UACC-62): 10.1 µM (inactive)
- GI50 (NCI-H460): 3.56 µM (inactive)
- GI50 (CAKI-1): 4.5 µM (inactive)
- GI50 (DU-145): 4.73 µM (inactive)
- GI50 (PC-3): 1.66 µM (inactive)
- GI50 (SR): 1.62 µM (inactive)
- GI50 (SF-295): 3.58 µM (inactive)
- GI50 (HT-29): 3.59 µM (inactive)
- GI50 (OVCAR-4): 4.27 µM (inactive)
- GI50 (TK-10): 4.92 µM (inactive)
- GI50 (HCC 2998): 1.87 µM (inactive)
- GI50 (HL-60): 0.542 µM (active)
- GI50 (RXF 393): 4.13 µM (inactive)
- GI50 (UO-31): 2.42 µM (inactive)
